Measurements: patent publication US9968582B2, “Use of a benzoate containing composition in urea cycle disorders and neurodegenerative disorders” (Rush University Medical Center, priority 2014, dated 2018)

Columns and labels:
[1] = test system: Tyrosine hydroxylase (TH); assay: MPTP mouse model of PD, Western blot of nigral TH; type: in vivo, mice; details: FIG. 9A-B
Experimental: (§1) Six- to eight-week old C57BL/6 mice were purchased from Harlan (Indianapolis, Ind.). For acute MPTP intoxication, mice received four intraperitoneal (i.p.) injections of MPTP-HCl (18 mg/kg of free base; Sigma Chemical Co., St. Louis, Mo.) in saline at 2-h intervals. Control animals received only saline.
(§2) GTB was mixed in 0.5% methylcellulose (MC) and from 3 h after the last injection of MPTP, mice were gavaged 100 μL GTB-mixed MC once daily using gavage needle. Therefore, control MPTP mice received only MC as vehicle.
(§3) Immunoblot analysis for DJ-1 and TH was carried out. Briefly, cell homogenates were electrophoresed, proteins were transferred onto a nitrocellulose membrane, and bands were visualized with an Odyssey infrared scanner after immunolabeling with respective primary antibodies followed by infra-red fluorophore-tagged secondary antibody (Invitrogen).
Tyrosine hydroxylase (TH), the key enzyme responsible for the production of dopamine, is present in dopaminergic neurons. MPTP-intoxication led to approximately 60% loss of nigral TH (FIG. 9A-B) compared with saline-injected controls.

female SJL/J mice = assay: Adoptively-transferred RR-EAE, clinical symptoms; type: in vivo; details: for clinical symptoms (mean clinical score): FIG. 1A
DJ-1 = assay: MPTP mouse model of PD, Western blot of DJ-1 in the nigra; type: in vivo, mice; details: oral GTB in MPTP-intoxicated mice, dose-dependent; FIG. 9A-B
Experimental: as §1, §2, §3
Upregulation and/or maintenance of PD-related beneficial protein such as DJ-1 in the nigra during neurodegenerative insults may have therapeutic efficacy in PD.

[2] = Observation of drug related side effects in mice; type: in vivo; details: any of the mice used during the course of the study
IL-1β = assay: Expression of IL-1β in spinal cord of EAE mice (RT-PCR); type: in vivo; details: FIG. 4D-F
Experimental: Total RNA was isolated from splenic T cells and spinal cord by using the RNeasy mini kit (Qiagen, Valencia, Calif.) and from spleen and cerebellum by using the Ultraspec-II RNA reagent (Biotecx laboratories, Inc, Houston, Tex.) following manufacturer's protocol. To remove any contaminating genomic DNA, total RNA was digested with DNase. Semi-quantitative RT-PCR was carried out using a RT-PCR kit from Clonetech (Mountain View, Calif.). Briefly, 1 μg of total RNA was reverse transcribed using oligo(dT)12-18 as primer and MMLV reverse transcriptase (Clontech) in a 20 μL reaction mixture. The resulting cDNA was appropriately-diluted, and diluted cDNA was amplified using Titanium Taq DNA polymerase and following primers. Amplified products were electrophoresed on a 1.8% agarose gels and visualized by ethidium bromide staining.
(§4) The relative expression of each gene with respect to GAPDH was measured after scanning the bands with a Fluor Chem 8800 Imaging System (Alpha Innotech, San Leandro, Calif.).
Real-time PCR analysis was performed using the ABI-Prism7700 sequence detection system (Applied Biosystems, Foster City, Calif.). […] Data were processed by the ABI Sequence Detection System 1.6 software and analyzed by ANOVA. […]

encephalitogenic T cells = assay: Generation of encephalitogenic T cells in GTB-treated donor mice, adoptive transfer; type: in vivo; details: donor mice treated with GTB 50 mg/kg body wt/d orally from day of MBP immunization; vs untreated or vehicle-treated donors; FIG. 2
[3] = test system: proteolipid protein (PLP); assay: Myelin gene mRNA expression in spinal cord of EAE mice: PLP; type: in vivo; details: FIG. 5C-E
Experimental: Total RNA was isolated from splenic T cells and spinal cord by using the RNeasy mini kit (Qiagen, Valencia, Calif.) and from spleen and cerebellum by using the Ultraspec-II RNA reagent (Biotecx laboratories, Inc, Houston, Tex.) following manufacturer's protocol. To remove any contaminating genomic DNA, total RNA was digested with DNase. Semi-quantitative RT-PCR was carried out using a RT-PCR kit from Clonetech (Mountain View, Calif.). Briefly, 1 μg of total RNA was reverse transcribed using oligo(dT)12-18 as primer and MMLV reverse transcriptase (Clontech) in a 20 μL reaction mixture. […]
as §4
Real-time PCR analysis was performed using the ABI-Prism7700 sequence detection system (Applied Biosystems, Foster City, Calif.). […] Data were processed by the ABI Sequence Detection System 1.6 software and analyzed by ANOVA.
Demyelination is the most important pathological feature in MS, which is also modeled in EAE animals. […] To confirm this finding, the inventor monitored the expression of […] myelin genes, myelin basic protein (MBP) and proteolipid protein (PLP), and observed a marked loss of mRNA expression of these genes in the spinal cord of untreated EAE mice compared to control mice (FIG. 5C-E).

spinal cord of EAE mice = assay: Luxol fast blue staining for myelin, spinal cord of EAE mice; type: in vivo; details: FIG. 5A-B
Experimental: Sections were stained with Luxol fast blue for myelin as described earlier. Slides were assessed in a blinded fashion for demyelination by three examiners using the following scale: 0, normal white matter; 1, rare foci; 2, a few areas of demyelination; and 3, large areas of demyelination. At least six serial sections of each spinal cord from each of five mice per group were scored and statistically analyzed by ANOVA.
Demyelination is the most important pathological feature in MS, which is also modeled in EAE animals. Therefore, the inventor examined whether GTB protected EAE mice from demyelination. The inventor stained spinal cord sections by luxol fast blue (LFB) for myelin and observed widespread demyelination zones in the white matter (FIG. 5A-B). […] In contrast, vehicle was unable to restore myelin level in spinal cord of EAE mice (FIG. 5A-B). To confirm this finding, the inventor monitored the expression of […] myelin genes, myelin basic protein (MBP) and proteolipid protein (PLP), and observed a marked loss of mRNA expression of these genes in the spinal cord of untreated EAE mice compared to control mice (FIG. 5C-E).

TGF-β = TGF-β ELISA in serum of EAE mice; type: in vivo; details: GTB from 8 dpt, sacrificed 16 dpt; FIG. 6
Excerpt: Production of TGF-β in culture supernatant was monitored by ELISA using assay kit from eBioscience (San Diego, Calif.).
Because TGF-β is known to protect mice from EAE, the inventor examined the level of TGF-β in serum of GTB-treated and untreated EAE mice by ELISA. EAE mice receiving GTB or vehicle from 8 dpt were sacrificed on 16 dpt followed by analysis of TGF-β in serum. The inventor observed marked decrease in TGF-β in the serum of EAE mice as compared to control mice (FIG. 6).

With `O=C(OCC(COC(=O)c1ccccc1)OC(=O)c1ccccc1)c1ccccc1` [GTB, glyceryl tribenzoate] the “nigral TH” value ([1]; GTB 25 mg/kg body wt/d) was “protection was evident”, the “nigral TH” value ([1]; oral GTB in MPTP-intoxicated mice) was “protected nigral TH in a dose-dependent manner” and the “clinical symptoms (mean clinical score)” value (female SJL/J mice; GTB 25 mg/kg body wt/d by gavage once daily from 8 dpt) was “significantly inhibited clinical symptoms”. For the same compound, the “clinical symptoms (mean clinical score)” value (female SJL/J mice; GTB 50 mg/kg body wt/d by gavage from 8 dpt, acute and chronic phases) was “dramatic inhibition of clinical symptoms”, the “clinical symptoms (mean clinical score)” value (female SJL/J mice; GTB 100 mg/kg body wt/d by gavage from 8 dpt) was “less potent than either 50 mg/kg body wt/d” and the “clinical symptoms of adoptively-transferred RR-EAE” value (female SJL/J mice; GTB treatment, TGF-β blocking experiment, FIG. 8) was “ameliorated clinical symptoms”. The “dose that significantly suppressed clinical symptoms of EAE” value (female SJL/J mice; dose-dependent study, oral GTB) was ≥ 25 mg/kg body wt/d, the “level of DJ-1 in the nigra” value (DJ-1) was “protected DJ-1 in the nigra” and the “drug related side effect (e.g. hair loss, weight loss, untoward infection)” value [2] was “did not notice any drug related side effect”. For the same compound, the “expression of IL-1β in the spinal cord” value (IL-1β) was “dramatically reduced the expression”, the “clinical symptoms and disease severity of recipient mice” value (encephalitogenic T cells) was “significantly reduced clinical symptoms and disease severity” and the “PLP mRNA expression in the spinal cord” value [3] was “significant restoration of myelin gene mRNA expression”. The “myelin level in the spinal cord (LFB)” value (spinal cord of EAE mice) was “remarkably restored myelin level” and the TGF-β in serum (TGF-β) was “protected TGF-β”.
